The source of these data is patent US4606860A, “Rhodanines useful as a therapeutic agent for diabetic complications” (Kaken Pharmaceutical Co., Ltd., priority 1984, dated 1986).

Structures can show the parent of a compound that is named as a salt. Where two headings read alike, the source gives them in different places.

In one data set the target is T1, aldose reductase (Rattus norvegicus, UniProt P07943).
T1 construct: the supernatant was used as the crude enzyme solution; from tissue; host or cells: lens of male Wistar rats (10,000 g supernatant of homogenate, crude enzyme)
Description: Aldose reductase inhibiting activity (crude enzyme from rat lens, NADPH absorbance at 340 nm). Type of data set: biochemical, rat (Wistar strain). Particulars: DL-glyceraldehyde 10 mM, NADPH 0.104 mM, pH 6.2, Table 4, read-out: IC50 (50% inhibition concentration), aldose reductase. The procedure: Thus, Wistar strain male rats were sacrificed by decapitation, the lenses were excised and homogenized with a 0.1 M phosphate buffer [pH 6.8; containing 1 mM of mercaptoethanol and 1 mM of nicotinamide-adenine dinucleotide phosphate (NADP)]. The homogenate was then centrifuged at 10,000 g for 15 minutes and the supernatant was used as the crude enzyme solution.
To this buffer solution, there was added 15 μl of each of solutions of each test compound in varied concentrations, followed by addition of 25 μl of the crude enzyme solution prepared in advance, to thereby initiate the reaction.

Data set [1] has as its system thrombin-induced aggregation of washed rabbit platelets. Description: Platelet aggregation inhibiting activity (thrombin-stimulated washed rabbit platelets, aggregometer). To be noted: for IC50: Oryctolagus cuniculus, Platelet; for platelet aggregation inhibiting activity, in words: comparison with other compounds or Dipyridamole (Persantine). Type of data set: cell-based, rabbit (albino, white local breed). The procedure:
The platelets were suspended in a 15 mM Tris-hydrochloric acid buffer in a final concentration of 6×10^8 cells/ml (Tris: tris(hydroxymethyl)aminomethane). Each test compound was added thereto and incubation was carried out at 37° C. for 2 minutes. Then, the platelets were stimulated by addition of thrombin (final concentration 0.2 unit/ml; made by Mochida Pharmaceutical Co.) and the aggregation inhibiting activity was estimated by observation of the aggregation reaction using an aggregometer (made by Briston Co.).

A short description of data set [2]: Acute toxicity in mice (oral). Type of data set: in vivo. To be noted: mouse, in vivo, male ddY mice, 2 weeks. The source says: (§1) The acute toxicity in mice was examined with the rhodanine derivative (I) of the present invention.
In the next data set the test system is male ddY strain mice. In words: Acute toxicity in mice (oral). Type of data set: in vivo. Particulars: 2 weeks.
Text: as §1

[3] abbreviates: 2 min, read-out: IC50 (50 % inhibition concentration), platelet aggregation.
Setting [4] is: washed rabbit platelets, read-out: concentration inhibiting thrombin-induced aggregation by 50%.
[5] abbreviates: 2 min, washed rabbit platelets 6×10^8 cells/ml, thrombin 0.2 unit/ml, 37° C., 2 minutes, Table 3, read-out: IC50 (50 % inhibition concentration), platelet aggregation.

For `CNC=C1SC(=S)N(CC(=O)O)C1=O` [Compound No. 1, 3-Carboxymethyl-5-methylaminomethylidenerhodanine], at aldose reductase, the IC50 was found to be 1.3 µM.
On the same count and under the same terms, with `CN(C)C=C1SC(=S)N(CC(=O)O)C1=O` [Compound No. 2, 3-Carboxymethyl-5-dimethylaminomethylidenerhodanine] the figure was 0.65 µM; with `O=C(O)CN1C(=O)C(=CNCCO)SC1=S` [Compound No. 3, Ethanolamine salt of 3-Carboxymethyl-5-hydroxyethylaminomethylidenerhodanine], 0.7 µM.
The same measure, in the same setting: with `C=CCNC=C1SC(=S)N(CC(=O)O)C1=O` [Compound No. 4, 3-Carboxymethyl-5allylaminomethylidenerhodanine] the figure was 0.3 µM; with `CC(C)CNC=C1SC(=S)N(CC(=O)O)C1=O` [Compound No. 5, 3-Carboxymethyl-5-isobutylaminomethylidenerhodanine], 0.6 µM; with `CCCCCCNC=C1SC(=S)N(CC(=O)O)C1=O` [Compound No. 6, 3-Carboxymethyl-5-hexylaminomethylidenerhodanine], 0.28 µM.
As for `COc1cccc(NC=C2SC(=S)N(CC(=O)O)C2=O)c1` [Compound No. 7, 3-Carboxymethyl-5-m-methoxyphenylaminomethylidene-rhodanine], the IC50 in data set [1] (setting [3]) amounted to 310 µM; in data set [1] (setting [4]) it was 300 µM; on aldose reductase it was 0.026 µM. In addition, the “platelet aggregation inhibiting activity, in words” value in data set [1] is reported as “almost comparable in said activity to Dipyridamole”. In data set [2], the LD50 at 336 h is > 4000 mg/kg. For the same molecule, the “deaths noted up to a dose of 4 g/kg body weight” value (“deaths noted up to a dose” for short) in the data set on male ddY strain mice is given as “no deaths were noted”.
In the case of `COc1ccccc1NC=C1SC(=S)N(CC(=O)O)C1=O` [Compound No. 8, 3-Carboxymethyl-5-o-methoxyphenylaminomethylidenerhodanine], the IC50 in data set [1] (setting [5]) worked out at 310 µM; in data set [1] (setting [4]), 300 µM; at aldose reductase, 0.05 µM. In data set [1], the “platelet aggregation inhibiting activity, in words” value was “almost comparable in said activity to Dipyridamole”.
For `O=C(O)CN1C(=O)C(=CNc2cccc(Cl)c2)SC1=S` [Compound No. 9, 3-Carboxymethyl-5-m-chlorophenylaminomethylidenerhodanine], the values for the IC50 (in data set [1] (setting [4]); at aldose reductase) were 300 µM and 0.023 µM, respectively. Also, the “platelet aggregation inhibiting activity, in words” value in data set [1] is reported as “almost comparable in said activity to Dipyridamole”. For the same molecule, the LD50 at 336 h in data set [2] is > 4000 mg/kg. Moreover, the “deaths noted up to a dose” value in the data set on male ddY strain mice was “no deaths were noted”.
Turning to `O=C(O)CN1C(=O)C(=CNc2ccc(Br)cc2)SC1=S` [Compound No. 10, 3-Carboxymethyl-5-p-bromophenylaminomethylidenerhodanine], the IC50 was determined as 300 µM in data set [1] (setting [5]), 300 µM in data set [1] (setting [4]) and 0.05 µM at aldose reductase. Besides, the “platelet aggregation inhibiting activity, in words” value in data set [1] is given as “almost comparable in said activity to Dipyridamole”.
For `Cc1cccc(NC=C2SC(=S)N(CC(=O)O)C2=O)c1` [Compound No. 11, 3-Carboxymethyl-5-m-methylphenylaminomethylidenerhodanine], the IC50 in data set [1] (setting [3]) stood at 320 µM; in data set [1] (setting [4]), 300 µM; on aldose reductase it was 0.036 µM. Besides, in data set [1], the “platelet aggregation inhibiting activity, in words” value is recorded as “almost comparable in said activity to Dipyridamole”. Further, in data set [2], the LD50 at 336 h was > 4000 mg/kg. For the same molecule, in the data set with male ddY strain mice, the “deaths noted up to a dose” value is listed as “no deaths were noted”.
On to `O=C(O)CN1C(=O)C(=CN2CCOCC2)SC1=S` [Compound No. 12, 3-Carboxymethyl-5-morpholinomethylidenerhodanine], for which, on aldose reductase, the IC50 was determined as 0.34 µM.
For the molecule `CN1CCN(C=C2SC(=S)N(CC(=O)O)C2=O)CC1` [Compound No. 13, 3-Carboxymethyl-5-N-methylpiperazinomethylidenerhodanine], at aldose reductase, the IC50 was 0.2 µM.
As to `CN1CCCN(C=C2SC(=S)N(CC(=O)O)C2=O)CC1` [Compound No. 14, 3-Carboxymethyl-5-N-methylhomopiperazinomethylidenerhodanine], on aldose reductase, the IC50 amounted to 1.3 µM.
For the molecule `O=C(O)CN1C(=O)C(=CNc2ccccc2-c2ccccc2)SC1=S` [Compound No. 15, 3-Carboxymethyl-5-(2-biphenylyl)aminomethylidenerhodanine], the IC50 in data set [1] (setting [3]) was determined as 410 µM; on aldose reductase, 0.15 µM. Moreover, in data set [2], the LD50 at 336 h was > 4000 mg/kg. The “deaths noted up to a dose” value in the data set with male ddY strain mice is “no deaths were noted”.
Consider `OCCN(CCO)c1nc(N2CCCCC2)c2nc(N(CCO)CCO)nc(N3CCCCC3)c2n1` [Dipyridamole, reference compound], for which, in data set [1] (setting [5]), the IC50 is 200 µM.
